What was measured:
Type in all cases: in vivo
[1] = tested on: horseweed (Erigeron canadensis); assay: Test A postemergence, horseweed; details: 10 days
Text: (§1) Seeds of plant species selected from barnyardgrass (Echinochloa crus-galli), blackgrass (Alopecurus myosuroides), corn (Zea mays), foxtail, giant (giant foxtail, Setaria faberi), foxtail, green (green foxtail, Setaria viridis), goosegrass (Eleusine indica), kochia (Bassia scoparia), oat, wild (wild oat, Avena fatua), palmer amaranth (pigweed, palmer, Amaranthus palmeri), redroot pigweed (Amaranthus retroflexus), ragweed (common ragweed, Ambrosia artemisiifolia), ryegrass, Italian (Italian ryegrass, Lolium multiflorum), and soybean (Glycine max) were planted into a blend of loam soil and sand and treated preemergence with a directed soil spray using test chemicals formulated in a non-phytotoxic solvent mixture which included a surfactant.
(§2) At the same time, plants selected from these crop and weed species and also wheat (Triticum aestivum), galium (catchweed bedstraw, Galium aparine) and horseweed (Erigeron canadensis) were planted in pots containing the same blend of loam soil and sand and treated with postemergence applications of test chemicals formulated in the same manner. Plants ranged in height from 2 to 10 cm and were in the one- to two-leaf stage for the postemergence treatment. Treated plants and untreated controls were maintained in a greenhouse for 10 days, after which time all treated plants were compared to untreated controls and visually evaluated for injury. Plant response ratings, summarized in Table A, are based on a 0 to 100 scale where 0 is no effect and 100 is complete control. A dash (-) response means no test result.

soybean (Glycine max) [2] = assay: Test A postemergence, soybean; details: 10 days
Text: as §1, §2

[3] = tested on: wheat (Triticum aestivum); assay: Test A preemergence, wheat; details: 125 g ai/ha, 0 to 100 scale, 10 days
[4] = tested on: blackgrass (Alopecurus myosuroides); assay: Test A preemergence, blackgrass; details: 0 to 100 scale, 10 days
Text: as §1, §2

[5] = tested on: foxtail, giant (giant foxtail, Setaria faberi); assay: Test A preemergence, foxtail, giant; details: 0 to 100 scale, 10 days
How it was run: (§3)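 Both application timings shared one formulation: test chemical in non-phytotoxic solvent with surfactant. Preemergence used a directed soil spray at sowing, postemergence a spray on 2–10 cm seedlings. Untreated plants served as reference for 0–100 visual ratings after 10 days.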

[6] = tested on: oat, wild (wild oat, Avena fatua); assay: Test A preemergence, oat, wild; details: 0 to 100 scale, 10 days
Text: as §1, §2

[7] = tested on: barnyardgrass (Echinochloa crus-galli); assay: Test B flooded paddy test, barnyardgrass; details: 250 g ai/ha, Flood; visually evaluated after 10 to 14 days
How it was run: (§4)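 2-leaf plants; pots flooded to 3 cm; compound applied to paddy water; depth kept constant; greenhouse 10–14 d; visual rating vs untreated, 0 = no effect, 100 = complete control.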

[8] = tested on: galium (catchweed bedstraw, Galium aparine); assay: Test A postemergence, galium; details: 10 days
How it was run: as §3

[9] = tested on: foxtail, giant (giant foxtail, Setaria faberi); assay: Test A postemergence, foxtail, giant; details: 10 days
How it was run: as §3

kochia (Bassia scoparia) [10] = assay: Test A preemergence, kochia; details: 0 to 100 scale, 10 days
How it was run: as §3

kochia (Bassia scoparia) [11] = assay: Test A postemergence, kochia; details: 10 days
How it was run: as §3

[12] = tested on: ryegrass, Italian (Italian ryegrass, Lolium multiflorum); assay: Test A postemergence, ryegrass, Italian; details: 10 days
How it was run: as §3

[13] = tested on: oat, wild (wild oat, Avena fatua); assay: Test A postemergence, oat, wild; details: 10 days
Text: as §1, §2

[14] = tested on: goosegrass (Eleusine indica); assay: Test A preemergence, goosegrass; details: 0 to 100 scale, 10 days
Text: as §1, §2

[15] = tested on: ragweed (common ragweed, Ambrosia artemisiifolia); assay: Test A postemergence, ragweed; details: 10 days
How it was run: as §3

[16] = tested on: palmer amaranth (pigweed, palmer, Amaranthus palmeri); assay: Test A postemergence, palmer amaranth; details: 10 days
Text: as §1, §2

[17] = tested on: wheat (Triticum aestivum); assay: Test A postemergence, wheat; details: 10 days
How it was run: as §3

[18] = tested on: ducksalad (Heteranthera limosa); assay: Test B flooded paddy test, ducksalad; details: 250 g ai/ha, Flood; visually evaluated after 10 to 14 days
How it was run: as §4

corn (Zea mays) [19] = assay: Test A postemergence, corn; details: 10 days
How it was run: as §3

[20] = tested on: ragweed (common ragweed, Ambrosia artemisiifolia); assay: Test A preemergence, ragweed; details: 0 to 100 scale, 10 days
How it was run: as §3

corn (Zea mays) [21] = assay: Test A preemergence, corn; details: 0 to 100 scale, 10 days
Text: as §1, §2

[22] = tested on: palmer amaranth (pigweed, palmer, Amaranthus palmeri); assay: Test A preemergence, palmer amaranth; details: 0 to 100 scale, 10 days
Text: as §1, §2

[23] = tested on: goosegrass (Eleusine indica); assay: Test A postemergence, goosegrass; details: 10 days
Text: as §1, §2

[24] = tested on: ryegrass, Italian (Italian ryegrass, Lolium multiflorum); assay: Test A preemergence, ryegrass, Italian; details: 0 to 100 scale, 10 days
How it was run: as §3

soybean (Glycine max) [25] = assay: Test A preemergence, soybean; details: 0 to 100 scale, 10 days
Text: as §1, §2

[26] = tested on: blackgrass (Alopecurus myosuroides); assay: Test A postemergence, blackgrass; details: 10 days
How it was run: as §3

[27] = tested on: sedge, umbrella (small-flower umbrella sedge, Cyperus difformis); assay: Test B flooded paddy test, sedge, umbrella; details: 250 g ai/ha, Flood; visually evaluated after 10 to 14 days
How it was run: as §4

rice (Oryza sativa) = assay: Test B flooded paddy test, rice; details: 250 g ai/ha, Flood; visually evaluated after 10 to 14 days
How it was run: as §4

[28] = 31 g ai/ha, postemergence, 0 to 100 scale (0 no effect, 100 complete control)
[29] = Postemergence, 125 g ai/ha, 0 to 100 scale

For `Cn1nc(Cl)c(OCOC(=O)C(C)(C)C)c(-c2c3ccccc3cc3ccccc23)c1=O` [Compound 19], the “Plant response rating, Horseweed” value [1, 28] was 100, the “Plant response rating, Horseweed” value [1, 29] was 90 and the “Plant response rating, Soybean” value (soybean (Glycine max) [2]; [28]) was 0. The “Plant response rating, Soybean” value (soybean (Glycine max) [2]; [29]) was 30, the “Plant response rating, Wheat” value [3] was 0 and the “Plant response rating, Blackgrass” value ([4]; 31 g ai/ha) was 0. The “Plant response rating, Blackgrass” value ([4]; 125 g ai/ha) was 10, the “Plant response rating, Foxtail, Giant” value ([5]; 31 g ai/ha) was 10 and the “Plant response rating, Foxtail, Giant” value ([5]; 125 g ai/ha) was 70. The “Plant response rating, Oat, Wild” value ([6]; 31 g ai/ha) was 0, the “Plant response rating, Oat, Wild” value ([6]; 125 g ai/ha) was 0 and the “Plant response rating, Barnyardgrass (0 to 100 scale where 0 is no effect and 100 is complete control)” value [7] was 35. For the same compound, the “Plant response rating, Galium” value [8, 28] was 100, the “Plant response rating, Galium” value [8, 29] was 100 and the “Plant response rating, Foxtail, Giant” value [9, 28] was 10. The “Plant response rating, Foxtail, Giant” value [9, 29] was 50, the “Plant response rating, Kochia” value (kochia (Bassia scoparia) [10]; 31 g ai/ha) was 0 and the “Plant response rating, Kochia” value (kochia (Bassia scoparia) [10]; 125 g ai/ha) was 80. For the same compound, the “Plant response rating, Kochia” value (kochia (Bassia scoparia) [11]; [28]) was 40, the “Plant response rating, Kochia” value (kochia (Bassia scoparia) [11]; [29]) was 80 and the “Plant response rating, Ryegrass, Italian” value [12, 28] was 0. The “Plant response rating, Ryegrass, Italian” value [12, 29] was 10, the “Plant response rating, Oat, Wild” value [13, 28] was 10 and the “Plant response rating, Oat, Wild” value [13, 29] was 10. For the same compound, the “Plant response rating, Goosegrass” value ([14]; 31 g ai/ha) was 0, the “Plant response rating, Goosegrass” value ([14]; 125 g ai/ha) was 30 and the “Plant response rating, Ragweed” value [15, 28] was 100. The “Plant response rating, Ragweed” value [15, 29] was 100, the “Plant response rating, Pigweed, Palmer” value [16, 28] was 100 and the “Plant response rating, Pigweed, Palmer” value [16, 29] was 100. For the same compound, the “Plant response rating, Wheat” value [17, 28] was 0, the “Plant response rating, Wheat” value [17, 29] was 0 and the “Plant response rating, Ducksalad (0 to 100 scale where 0 is no effect and 100 is complete control)” value [18] was 100. For the same compound, the “Plant response rating, Corn” value (corn (Zea mays) [19]; [28]) was 10, the “Plant response rating, Corn” value (corn (Zea mays) [19]; [29]) was 20 and the “Plant response rating, Ragweed” value ([20]; 31 g ai/ha) was 80. The “Plant response rating, Ragweed” value ([20]; 125 g ai/ha) was 80, the “Plant response rating, Corn” value (corn (Zea mays) [21]; 31 g ai/ha) was 0 and the “Plant response rating, Corn” value (corn (Zea mays) [21]; 125 g ai/ha) was 0. The “Plant response rating, Pigweed, Palmer” value ([22]; 31 g ai/ha) was 90, the “Plant response rating, Pigweed, Palmer” value ([22]; 125 g ai/ha) was 100 and the “Plant response rating, Goosegrass” value [23, 28] was 10. The “Plant response rating, Goosegrass” value [23, 29] was 10, the “Plant response rating, Ryegrass, Italian” value ([24]; 31 g ai/ha) was 0 and the “Plant response rating, Ryegrass, Italian” value ([24]; 125 g ai/ha) was 80. The “Plant response rating, Soybean” value (soybean (Glycine max) [25]; 31 g ai/ha) was 0, the “Plant response rating, Soybean” value (soybean (Glycine max) [25]; 125 g ai/ha) was 0 and the “Plant response rating, Blackgrass” value [26, 28] was 0. For the same compound, the “Plant response rating, Blackgrass” value [26, 29] was 0, the “Plant response rating, Sedge, Umbrella (0 to 100 scale where 0 is no effect and 100 is complete control)” value [27] was 85 and the “Plant response rating, Rice (0 to 100 scale where 0 is no effect and 100 is complete control)” value (rice (Oryza sativa)) was 0.

Source: patent publication US12692238B2, “Substituted pyridazinone herbicides” (FMC CORPORATION, priority 2020, dated 2026)
